Reference: patent US20070014722A1, “Method of treating human volume expansion mediated hypertension employing resibufogenin” (The Administrators of the Tulane Educational Fund, priority 2005, published 2007)
“And” between values parts separate entries of the source, which are not always exact repeats. Equal entries are not always repeated. “Also recorded” adds a separate entry of the source.

Columns and labels:
[1] = system: Goldblatt 2 kidney, 1 clip model (renin-angiotensin mediated hypertension); assay: Blood pressure in Goldblatt 2 kidney, 1 clip rats (vasoconstrictive hypertension model); format: in vivo, rat; details: Group III, two rats; about 1.53 micrograms per 100 grams body weight
Protocol: (§1) In order to confirm the effectiveness of resibufogenin in treating volume expansion mediated hypertension, experiments were performed. Animal models of volume expansion mediated hypertension were created in the laboratory in accordance with guidance provided in “Down-regulation of Phosphorylation of Renal Proximal Brush Border Membrane Protein in DOCA-salt hypertensive rats”. H. Cai et al., J Am Soc Nephrol 5:S26, (1994). These models consisted of the administration of a potent mineralocorticoid desoxycorticosterone (DOCA) to rats whose drinking water had been replaced with 0.9% saline and which had one kidney removed (uninephrectomy) in order to induce volume expansion mediated hypertension. This group of animals is listed as Group I. Group II was the uninephrectomy control group (“time control”). Another group (Group III) utilized the Goldblatt 2 kidney, 1 clip model to induce vasoconstrictive (renin-angiotensin mediated) form of essential hypertension. All of the blood pressures were measured in mm Hg.
In each group, a baseline blood pressure was taken. This is shown in the first column. Subsequently, 10 days to 2 weeks prior to the introduction of resibufogenin, the blood pressure was measured. This appears in the second column. In the third column, the blood pressure was measured 10 days after administration of resibufogenin. […]

[2] = system: DOCA-salt uninephrectomized rats (volume expansion mediated hypertension); assay: Blood pressure in DOCA-salt uninephrectomized rats (volume expansion mediated hypertension model); format: in vivo, rat
Protocol: as §1
In each group, a baseline blood pressure was taken. This is shown in the first column. Subsequently, 10 days to 2 weeks prior to the introduction of resibufogenin, the blood pressure was measured. This appears in the second column. In the third column, the blood pressure was measured 10 days after administration of resibufogenin. The rats in Groups I and III weighed about 200 to 250 gm with resibufogenin being administered in the amount of about 1.53 micrograms per 100 grams of body weight. […] It is also noted that in the Group II control, that there was no meaningful pattern of reduction in blood pressure.
A dosage of approximately 1.53 micrograms […] with the rats weighing in the range of about 200-250 g was employed daily in order to determine the effectiveness of resibufogenin in the treatment of volume expansion mediated hypertension. The dosage was administered intraperitonially and the rats monitored after about three to four days of treatment. […]
The dosage was administered intraperitonially and the rats monitored after about three to four days of treatment. […]

[3] = Biological activity as antiangiogenesis agent

C[C@]12CC[C@H](O)C[C@H]1CC[C@@H]1[C@@H]2CC[C@]2(C)[C@@H](c3ccc(=O)oc3)C[C@H]3O[C@]132 [Resibufogenin, resibufogenin]
Blood pressure response to resibufogenin (in words) [1]: neither animal responded to resibufogenin
Reduction in blood pressure (in words) ([2]; Group I, four rats, 10 days after administration of resibufogenin): very substantial reduction in blood pressure; also recorded: meaningful reduction in blood pressure
Blood Pressure After 10 days of Resibufogenin ([2]; Group I, individual rats #1-#4, about 1.53 micrograms per 100 grams body weight daily, intraperitoneal, in DMSO, after 10 days): 85 mmHg and 90 mmHg and 130 mmHg and 100 mmHg
Reduction in blood pressure after treatment (in words) ([2]; daily intraperitoneal dose, rats monitored after about three to four days of treatment): all of the rats experienced a substantial reduction in blood pressure
Biological activity as an antiangionesis agent [3]: not to be biologically active
